Source: patent publication US20020068367A1, “Linker and method for solid phase combinatorial synthesis” (priority 2000, published 2002)

Experiments:
[1] = biological target: T1, fluorescein-streptavidin (Streptomyces avidinii, UniProt P22629); assay: Standard protein-binding assay: fluorescein-streptavidin binding to linker on streptavidin-coated 96-well plates; conditions: for Fluorescence emission detected (qualitative): linker and fluorescein-labeled protein present
T1 construct: purchased Calbiochem-Novabiochem Corp., La Jolla, Calif; 189734
Text: (§1) Referring to the drawings, and particularly to FIG. 1, generic reactions illustrating two variations of the screening system of the present invention are shown. FIGS. 1a-1d illustrate the generic System 1 reaction wherein a compound comprised of a tether connecting biotin with a chemical compound containing a nitrophenyl group is applied to a streptavidin coated solid phase. The amount of fluorescein-protein complex (c), where the exemplary protein is fluorescein-anti-DNP antibody, bound to the biotin-tether-nitrophenyl complex is characterized by detecting the magnitude of fluorescence emission in each individual well at the completion of the reaction. Similarly, FIG. 1e-1h illustrates the generic System 2 reaction wherein a tether connects 2 biotin groups together and streptavidin is coated on the solid phase. As in the System 1 reaction, the amount of fluorescein-protein complex (g), where the exemplary protein is fluorescein-streptavidin, bound to the biotin-tether-biotin complex is characterized through the detection of fluorescence emissions in each individual well at the completion of the reaction.
In the quantification of the interaction between fluoresceinated-proteins and linkers is characterized by detecting the magnitude of fluorescence emissions in each individual well at the completion of standard protein-binding assay procedures.
(§2) A standard protein-binding assay comprises a multi-step process in which strepeavidin pre-treated 96-well plates are exposed to a solution containing linker followed by exposure to a solution containing fluorescein-labeled protein. The 96-well plates are coated with a commercially available streptavidin solution (cat #BPS00100; Xenopore Corp., Hawthorne, N.J.) and then pre-incubated with 300 μl PBS buffer for 10 minutes at room temperature. To complete the pre-incubation process, the PBS buffer is discarded and the plates are further washed five times with water. Once the plate is sufficiently washed, add to the wells 100 μl of pre-mixed binding buffer containing the desired linker, the preparation of which is as described above. After addition of the linker solution, the plate is incubated at 37° C. for one hour. Upon completion of incubation, the linker solution is discarded and the plate is washed with five changes of water. For the fifth step of the assay process, 100 μl of a premixed reaction solution containing 1 M Tris, 0.5 M NaCl and the fluorescein-labeled proteins are added to selected wells of the plate with bound linker. The fluorescein conjugated proteins, anti-dinitrophenyl antibody (rabbit IgG fraction, cat #A-6423) (anti-DNP) and streptavidin (cat #189734) are commercially available from Molecular Probes, Inc., Eugene, Oreg. and Calbiochem Inc., San Diego, Calif. Upon addition of the protein solutions, the plate is further incubated at 37° C. for one hour. Following the incubation period, the reacting solution in each well is discarded and the wells are washed with five changes of 1 M Tris or 30 changes of water. After this final washing step, 250 μl of elution buffer containing 0.5 mM NaOH, methanol and 20 mM EDTA is added to each well and the plate is read using a Spectra MAX Gemini fluorescein plate reader (Molecular Devices Corp., Sunnyvale, Calif.).
Using the standard protein-binding assay described above, linkers 1-7 are evaluated for their ability to bind fluorescein-streptavidin or fluorescein-anti-DNP. The detection of fluorescence emission beyond that of the control would indicate that the fluorescein labeled protein has bound to the corresponding linker. Lack of fluorescence emission would indicate that either the linker or the fluorescein-bound proteins are absent, or that an improper linker was used. This may be interpreted as meaning that the protein of interest, in this exemplary example streptavidin or anti-DNP, “recognizes” the particular library compound being used in the experiment. […]

[2] = tested on: fluorescein-anti-DNP antibody (rabbit IgG fraction); assay: Standard protein-binding assay: fluorescein-anti-DNP binding to linker on streptavidin-coated 96-well plates
Text: as §1, §2
Using the standard protein-binding assay described above, linkers 1-7 are evaluated for their ability to bind fluorescein-streptavidin or fluorescein-anti-DNP. The detection of fluorescence emission beyond that of the control would indicate that the fluorescein labeled protein has bound to the corresponding linker. Lack of fluorescence emission would indicate that either the linker or the fluorescein-bound proteins are absent, or that an improper linker was used. This may be interpreted as meaning that the protein of interest, in this exemplary example streptavidin or anti-DNP, “recognizes” the particular library compound being used in the experiment. It is this “recognition” that constitutes the use of these plate libraries as “affinity probes”. While preliminary test results are reported for all of the tested linkers, particular emphasis will be on the data derived from testing of linkers 3 and 5. […]

T1 sequence (P22629 25-183): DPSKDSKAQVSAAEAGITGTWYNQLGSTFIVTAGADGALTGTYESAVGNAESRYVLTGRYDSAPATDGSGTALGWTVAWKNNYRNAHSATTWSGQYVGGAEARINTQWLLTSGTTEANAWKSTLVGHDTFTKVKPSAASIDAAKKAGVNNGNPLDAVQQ

O=C(CCCCC1SCC2NC(=O)NC21)NCCCOCCOCCOCCCNC(=O)CCCCC1SCC2NC(=O)NC21 (stereo not shown) [Linker 1]
Fluorescence emission detected (qualitative) [1]: No fluorescence emission was detected

NCCCCCNC(=O)CCCC[C@@H]1SC[C@@H]2NC(=O)N[C@@H]21 [Linker B-1596, reference compound]
Fluorescence emission ([1]; pre-linker B-1596 50 nmol replacing linker 3, streptavidin-fluorescein 100 pmol): remained at a level similar to reactions where no linker was used

O=C(CCCCCNc1ccc([N+](=O)[O-])cc1[N+](=O)[O-])NCCCOCCOCCOCCCNC(=O)COCC(=O)NCCCOCCOCCOCCCNC(=O)CCCCC1SCC2NC(=O)NC21 (stereo not shown) [Linker 7]
Fluorescence emission ([1]; Linker 7 5 nmol, no streptavidin-fluorescein (control)): 112 | Fluorescence emission ([1]; Linker 7 5 nmol, streptavidin-fluorescein 266 pmol): 208 | Fluorescence emission detected (qualitative) [1]: Fluorescence emissions were detected

O=C(CCCCC1SCC2NC(=O)NC21)NCCCCCC(=O)NCCCOCCOCCOCCCNC(=O)COCC(=O)NCCCOCCOCCOCCCNC(=O)CCCCC1SCC2NC(=O)NC21 (stereo not shown) [Linker 4]
Fluorescence emission ([1]; Linker 4 5 nmol, no streptavidin-fluorescein (control)): 122 | Fluorescence emission ([1]; Linker 4 5 nmol, streptavidin-fluorescein 100 pmol): 218 | Fluorescence emission detected (qualitative) [1]: Fluorescence emissions were detected

O=C(CCCCCNC(=O)CCCCC1SCC2NC(=O)NC21)NCCCCCNC(=O)CCCCCNc1ccc([N+](=O)[O-])cc1[N+](=O)[O-] (stereo not shown) [Linker 5]
Increase in fluorescence emission ([2]; 100-fold increase in linker 5 concentration): 2.5 fold | Fluorescence emission ([2]; [5] 50.0 nmol, fluorescein-anti-DNP 266 pmol): 197.62 | Fluorescence emission ([2]; [5] 100.0 nmol, fluorescein-anti-DNP 266 pmol): 176.22 | Fluorescence emission ([2]; [5] 200.0 nmol, fluorescein-anti-DNP 266 pmol): 172.66 | Fluorescence emission ([2]; [5] 300.0 nmol, fluorescein-anti-DNP 266 pmol): 180.98 | Fluorescence emission ([2]; [5] 400.0 nmol, fluorescein-anti-DNP 266 pmol): 225.98 | Fluorescence emission ([2]; [5] 500.0 nmol, fluorescein-anti-DNP 266 pmol): 224.27 | Fluorescence emission ([2]; [5] 1000.0 nmol, fluorescein-anti-DNP 266 pmol): 211.7 | Fluorescence emission ([2]; [5] 2000.0 nmol, fluorescein-anti-DNP 266 pmol): 351.7 | Fluorescence emission ([2]; [5] 3000.0 nmol, fluorescein-anti-DNP 266 pmol): 369.58 | Fluorescence emission ([2]; [5] 4000.0 nmol, fluorescein-anti-DNP 266 pmol): 516.83 | Fluorescence emission ([2]; [5] 5000.0 nmol, fluorescein-anti-DNP 266 pmol): 543.9 | Effect on binding capacity of fluorescein-anti-DNP ([2]; generic System 1): significantly enhances the binding capacity | Fluorescence emission ([2]; linker 5 50 nmol, [α-DNP] 0 pmol (linker only)): 76.392 | Fluorescence emission ([2]; linker 5 50 nmol, [α-DNP] 2.6 pmol): 101.45 | Fluorescence emission ([2]; linker 5 50 nmol, [α-DNP] 5.3 pmol): 109.82 | Fluorescence emission ([2]; linker 5 50 nmol, [α-DNP] 10.0 pmol): 129.19 | Fluorescence emission ([2]; linker 5 50 nmol, [α-DNP] 16.0 pmol): 137.9 | Fluorescence emission ([2]; linker 5 50 nmol, [α-DNP] 21.0 pmol): 160.48 | Fluorescence emission ([2]; linker 5 50 nmol, [α-DNP] 27.0 pmol): 204.54 | Fluorescence emission ([2]; linker 5 50 nmol, [α-DNP] 53.0 pmol): 306.3 | Fluorescence emission ([2]; linker 5 50 nmol, [α-DNP] 106.0 pmol): 473.57 | Fluorescence emission ([2]; linker 5 50 nmol, [α-DNP] 159.0 pmol): 615.29 | Fluorescence emission ([2]; linker 5 50 nmol, [α-DNP] 212.0 pmol): 599.48 | Fluorescence emission ([2]; linker 5 50 nmol, [α-DNP] 266.0 pmol): 561.46 | Increase in fluorescence emission ([2]; linker 5, 10-fold increase in fluorescein-anti-DNP concentration (5.3 to 53 pmol)): approximately 3 fold

O=C(CCCCCNC(=O)CCCCC1SCC2NC(=O)NC21)NCCCCCNC(=O)CCCCCNC(=O)CCCCC1SCC2NC(=O)NC21 (stereo not shown) [Linker 2]
Fluorescence emission ([1]; Linker 2 62.5 nmol, no streptavidin-fluorescein (control)): 583 | Fluorescence emission ([1]; Linker 2 62.5 nmol, streptavidin-fluorescein 73.5 pmol): 652 | Fluorescence emission detected (qualitative) [1]: Fluorescence emissions were detected
